Some test systems named below: BT-549; SF-268; HOP-92; DU-145; UO-31; SR; HT-29; MDA-MB-435; MOLT-4; CAKI-1; Malme-3M; SNB-19; HOP-62; ACHN; KM12; A549; NCI-H226; SK-MEL-5; LOX IMVI.
Holding throughout (assay): growth of human tumour cells (NCI), 48 h

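Protocol summary: plate cells (96-well), add compound at 5 concentrations, incubate 48 h, interpolate endpoints linearly. GI50 is the concentration that inhibits growth by half.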 Calls of active or inactive are those of the source. Rule as the data show it: active = GI50 up to about 1.1 µM and inactive = higher.

In the case of `COC(=O)[C@@H]1C[C@]2(Br)c3ccccc3N(S(=O)(=O)c3ccccc3)[C@@H]2N1C(=O)OC`, the GI50 is > 100 µM (inactive) with BT-549; > 100 µM (inactive) in the experiment with SF-268; > 100 µM (inactive) with HOP-92; 43.7 µM (inactive) in the experiment with DU-145; > 100 µM (inactive) in the experiment on UO-31; > 100 µM (inactive) with SR. Also, the GI50 in the experiment on HT-29 was > 100 µM (inactive); in the experiment with MDA-MB-435, > 100 µM (inactive); in the experiment on MOLT-4, > 100 µM (inactive); with CAKI-1 it was 59.8 µM (inactive); in the experiment on Malme-3M, > 100 µM (inactive); with SNB-19 it was > 100 µM (inactive). In addition, the GI50 is > 100 µM (inactive) with HOP-62; > 100 µM (inactive) with ACHN; > 100 µM (inactive) in the experiment on KM12; > 100 µM (inactive) in the experiment with A549; 85.7 µM (inactive) in the experiment with NCI-H226; > 100 µM (inactive) in the experiment with SK-MEL-5.

For the compound `CN(C)c1ccc(/C=C(\C#N)C(N)=C(C#N)C#N)cc1`, the GI50 in the experiment on BT-549, in the experiment with SF-268, with HOP-92, in the experiment on LOX IMVI, in the experiment on DU-145 and in the experiment on UO-31 was > 100 µM (inactive) throughout. The GI50 in the experiment with SR is > 100 µM (inactive); in the experiment on HT-29, > 100 µM (inactive); in the experiment with MDA-MB-435 it was > 100 µM (inactive); in the experiment with CAKI-1, > 100 µM (inactive); in the experiment on Malme-3M it was 32 µM (inactive); in the experiment on SNB-19, > 100 µM (inactive). In addition, the GI50 in the experiment with HOP-62, with ACHN, in the experiment with KM12, in the experiment with A549, with NCI-H226 and in the experiment on SK-MEL-5 was > 100 µM (inactive) in each case.

Take `O=C1CC2(CCN(CC3COc4ccccc4O3)CC2)C(=O)N1N1CCCCCC1` (stereo unspecified): the GI50 in the experiment with BT-549 was 61.7 µM (inactive); in the experiment on SF-268, > 100 µM (inactive); with HOP-92, 87.3 µM (inactive); with LOX IMVI it was 28.9 µM (inactive); in the experiment on DU-145 it was 32.7 µM (inactive); with UO-31, > 100 µM (inactive). Further, the GI50 was > 100 µM (inactive) in the experiment with SR; 21.4 µM (inactive) in the experiment with HT-29; 40 µM (inactive) with MDA-MB-435; 20.7 µM (inactive) with MOLT-4; > 100 µM (inactive) in the experiment with CAKI-1; 94.4 µM (inactive) with Malme-3M. The GI50 was > 100 µM (inactive) in the experiment on SNB-19; > 100 µM (inactive) with HOP-62; 73.5 µM (inactive) with ACHN; > 100 µM (inactive) with A549; 51.9 µM (inactive) with NCI-H226; 22.7 µM (inactive) in the experiment with SK-MEL-5.

As to `CC(C)(C)N/N=C(/Cc1nc2c3c(ccc2nc1O)C(=O)c1ccccc1C3=O)C(=O)NC1=C(Cl)C(=O)c2ccccc2C1=O`, the GI50 in the experiment on BT-549 is 70.5 µM (inactive); with SF-268, 6.97 µM (inactive); in the experiment with HOP-92, 31.6 µM (inactive); with LOX IMVI, 6.17 µM (inactive); in the experiment with DU-145, 21.8 µM (inactive); with UO-31 it was 4.91 µM (inactive). For the same compound, the GI50 with SR was 27.7 µM (inactive); in the experiment on HT-29 it was 13.6 µM (inactive); in the experiment with MDA-MB-435, 33 µM (inactive); in the experiment on MOLT-4 it was 23.2 µM (inactive); in the experiment on CAKI-1 it was 1.06 µM (active); with Malme-3M, 12.3 µM (inactive). Also, the GI50 with SNB-19 was 72.8 µM (inactive); in the experiment with ACHN it was 5.37 µM (inactive); in the experiment on KM12, 2.7 µM (inactive); in the experiment with A549, 18.3 µM (inactive); with NCI-H226, 10.7 µM (inactive); in the experiment with SK-MEL-5, 11.1 µM (inactive).

Consider `COC(=O)C(Cc1c[nH]c2ccccc12)NP(=O)(O)OCC1OC(n2cc(F)c(=O)[nH]c2=O)CC1O` (stereo unspecified), for which the GI50 in the experiment on BT-549 is > 100 µM (inactive); in the experiment on SF-268, 4.94 µM (inactive); with HOP-92 it was 31.4 µM (inactive); in the experiment with LOX IMVI, 18.2 µM (inactive); in the experiment with DU-145, 43.9 µM (inactive); in the experiment with UO-31, 23.2 µM (inactive). In addition, the GI50 with SR was 5.02 µM (inactive); with HT-29, > 100 µM (inactive); in the experiment with MDA-MB-435, > 100 µM (inactive); with MOLT-4 it was 10.1 µM (inactive); in the experiment with Malme-3M, > 100 µM (inactive); with SNB-19 it was 40.8 µM (inactive). For the same compound, the GI50 with HOP-62 is 25.9 µM (inactive); in the experiment on ACHN it was 6.89 µM (inactive); in the experiment on KM12, > 96.2 µM (inactive); in the experiment on A549, 10.4 µM (inactive); with NCI-H226, > 100 µM (inactive); in the experiment with SK-MEL-5, 77.3 µM (inactive).

Consider `CCCCCCCC1C(C)c2c([nH]c3ccccc23)C2C(=O)N(c3ccc(OC)cc3)C(=O)C21` (stereo unspecified), for which the GI50 is 2.11 µM (inactive) in the experiment on BT-549; 3.72 µM (inactive) in the experiment with SF-268; > 10 µM (inactive) in the experiment on HOP-92; > 8.3 µM (inactive) with DU-145; 2.51 µM (inactive) in the experiment on UO-31; 2.84 µM (inactive) with SR. Besides, the GI50 in the experiment on HT-29 was 2.63 µM (inactive); with MDA-MB-435, 3.33 µM (inactive); with MOLT-4 it was 3.2 µM (inactive); in the experiment with CAKI-1 it was 3.26 µM (inactive); in the experiment with Malme-3M, > 4.86 µM (inactive); in the experiment on SNB-19 it was 3.31 µM (inactive). The GI50 was 2.7 µM (inactive) in the experiment with HOP-62; 2.66 µM (inactive) with ACHN; 6.34 µM (inactive) in the experiment with KM12; 2.33 µM (inactive) with A549; 3.1 µM (inactive) in the experiment on NCI-H226; > 6.22 µM (inactive) with SK-MEL-5.

Regarding `Cc1ccccc1C(=O)N/N=C/c1ccc(Sc2nccn2C)c([N+](=O)[O-])c1`, the GI50 in the experiment with BT-549 was 67.1 µM (inactive); in the experiment on SF-268, > 100 µM (inactive); with HOP-92, 14.3 µM (inactive); in the experiment on LOX IMVI, 50.8 µM (inactive); in the experiment with DU-145 it was 88.3 µM (inactive); with UO-31, > 100 µM (inactive). In addition, the GI50 in the experiment with SR is 40 µM (inactive); with HT-29, 41.3 µM (inactive); with MDA-MB-435, 25.9 µM (inactive); in the experiment on MOLT-4, 54.6 µM (inactive); in the experiment on CAKI-1, 78.9 µM (inactive); in the experiment with Malme-3M, 69.3 µM (inactive). Moreover, the GI50 is > 100 µM (inactive) with SNB-19; 80.2 µM (inactive) with HOP-62; > 100 µM (inactive) in the experiment with ACHN; 66.7 µM (inactive) with KM12; > 100 µM (inactive) with A549; > 100 µM (inactive) in the experiment with NCI-H226. In addition, the GI50 in the experiment on SK-MEL-5 was 36.4 µM (inactive).

Regarding `CC1(C)OCC2OC3([C@@H]4OC(C)(C)O[C@H]4CO)OC(C)(C)OC3C2O1` (stereo partly specified), the GI50 with BT-549, in the experiment with HOP-92, in the experiment on LOX IMVI, in the experiment on DU-145, in the experiment on UO-31 and in the experiment with SR was > 100 µM (inactive) each time. Also, the GI50 in the experiment on MDA-MB-435, in the experiment on MOLT-4, with CAKI-1, in the experiment on SNB-19, in the experiment with HOP-62 and with ACHN was > 100 µM (inactive) in each case. The GI50 with KM12, in the experiment with A549, in the experiment with NCI-H226 and in the experiment with SK-MEL-5 was > 100 µM (inactive) throughout.

`Cc1nc2ccccc2c(=O)n1/N=C/c1ccc(N(C)C)cc1`: the GI50 with BT-549 was 46 µM (inactive); in the experiment with SF-268, 33.7 µM (inactive); in the experiment with HOP-92, 48.5 µM (inactive); with LOX IMVI, > 100 µM (inactive); in the experiment with DU-145, > 100 µM (inactive); in the experiment with SR, > 100 µM (inactive). In addition, the GI50 is > 100 µM (inactive) with HT-29; > 100 µM (inactive) with MDA-MB-435; > 100 µM (inactive) in the experiment with MOLT-4; > 100 µM (inactive) with CAKI-1; > 100 µM (inactive) with Malme-3M; 24.8 µM (inactive) with SNB-19. Moreover, the GI50 in the experiment with HOP-62 is 34.2 µM (inactive); in the experiment with ACHN, > 100 µM (inactive); in the experiment with KM12, > 100 µM (inactive); in the experiment on A549 it was > 100 µM (inactive); in the experiment on NCI-H226, > 100 µM (inactive); in the experiment on SK-MEL-5 it was > 100 µM (inactive).

`O=[N+]([O-])c1cc(F)ccc1S(=O)(=O)c1ccccc1`: the GI50 in the experiment on BT-549, in the experiment with SF-268, in the experiment with HOP-92, with LOX IMVI, in the experiment on DU-145 and in the experiment with SR was > 10 µM (inactive) throughout. Besides, the GI50 in the experiment on HT-29, with MDA-MB-435, in the experiment on MOLT-4, in the experiment with CAKI-1, in the experiment with Malme-3M and in the experiment with SNB-19 was > 10 µM (inactive) throughout. The GI50 in the experiment on HOP-62, in the experiment with ACHN, in the experiment on KM12, in the experiment on A549, with NCI-H226 and in the experiment with SK-MEL-5 was > 10 µM (inactive) each time.

`CCOP(=O)(O)CN1CCNCCN(CP(=O)(O)OCC)CCNCC1`: the GI50 in the experiment with BT-549 was > 100 µM (inactive); in the experiment with HOP-92, > 100 µM (inactive); in the experiment on LOX IMVI it was > 100 µM (inactive); with DU-145 it was > 100 µM (inactive); in the experiment with UO-31, 35.2 µM (inactive); in the experiment on SR it was > 10 µM (inactive). Also, the GI50 was 61.9 µM (inactive) with HT-29; > 100 µM (inactive) in the experiment with MDA-MB-435; > 100 µM (inactive) in the experiment with MOLT-4; > 100 µM (inactive) in the experiment on CAKI-1; > 100 µM (inactive) with SNB-19; > 100 µM (inactive) with HOP-62. Besides, the GI50 with ACHN, in the experiment with KM12, with A549, with NCI-H226 and in the experiment with SK-MEL-5 was > 100 µM (inactive) each time.
